Results taken from patent US20220041578A1, “ISOINDOLINE COMPOUND, AND PREPARATION METHOD, PHARMACEUTICAL COMPOSITION, AND APPLICATION OF ISOINDOLINE COMPOUND” (Shanghai Institute of Meteria Medica, Chinese Academy of …, priority 2018, published 2022).

Test system: MM.1S cells
Assay: Effect of the compound on the proliferation of MM.1S cells (MTS)
Assay type: cell-based
Conditions: Homo sapiens, MM1.S, 168 h, 7 days, read-out: Cell inhibitory activity (IC50)
Protocol: MM.1S cells were cultured with 1640 plus 10% fetal bovine serum and collected. The cell concentration was diluted according to the action time of 7 days, and 180 ul cell suspension was added to each well of the 96-well cell plate to make the cell count to be 20,000. 20 ul of DMSO with a final concentration of 0.2% was added to the control cell wells. The compound was diluted 5-fold with the 10 mM stock solution, and 20 ul was also added to the compound cell wells (the final concentration of DMSO is 0.2%). The cells were placed in a 37° C., 5% CO2 incubator and incubated for 7 days. After preparing the reaction solution according to the MTS kit (Promega, G5430), 20 μL was added to each well, incubated in a 37° C., 5% CO2 incubator for 3-4 h. Read the 490 nm absorbance value with a microtiter plate, and used the 690 nm absorbance value as the background value and OD490-OD690 as the final initial data. The formula for calculating the inhibition rate of the compound is: inhibition rate=(OD DMSO-ODcompound)/(ODDMSO-Oblank)×100%. The compound's proliferation inhibition IC50 was fitted by Graph Pad Prism 5.0. The experiment was repeated three times, and three parallel experiments were used to calculate the average and standard deviation each time.

| IC50 [µM] | SMILES |
| --- | --- |
| < 0.15 | O=C1CCC(N2Cc3c(OCc4cn(Cc5ccccc5)nn4)cccc3C2=O)C(=O)N1 (stereo not shown) [Compound 1] |
| 0.15 to 20 | O=C1CCC(N2Cc3c(OCc4cn(Cc5ccncc5)nn4)cccc3C2=O)C(=O)N1 (stereo not shown) [Compound 2] |
| 0.15 to 20 | O=C1CCC(N2Cc3c(OCc4cn(Cc5cccnc5)nn4)cccc3C2=O)C(=O)N1 (stereo not shown) [Compound 3] |
| < 0.15 | O=C1CCC(N2Cc3c(OCc4cn(Cc5ccnc6ccccc56)nn4)cccc3C2=O)C(=O)N1 (stereo not shown) [Compound 4] |
| < 0.15 | COc1cccc(Cn2cc(COc3cccc4c3CN(C3CCC(=O)NC3=O)C4=O)nn2)c1 (stereo not shown) [Compound 5] |
| < 0.15 | O=C1CCC(N2Cc3c(OCc4cn(Cc5cccc(C(F)(F)F)c5)nn4)cccc3C2=O)C(=O)N1 (stereo not shown) [Compound 6, 3-(1-oxo-4-((1-(3-(trifluoromethyl)benzyl)-1H-1,2,3-triazol-4-)methoxy)isoindolin-2-) piperidine-2,6-dione] |
| < 0.15 | O=C1CCC(N2Cc3c(OCc4cn(Cc5cccc(N6CCOCC6)c5)nn4)cccc3C2=O)C(=O)N1 (stereo not shown) [Compound 7, 3-(4-((1-(3-morpholinbenzyl)-1H-1,2,3-triazol-4-)methoxy)-1-oxoisoindolin-2-) piperidine-2,6-dione] |
| < 0.15 | O=C1CCC(N2Cc3c(OCc4cn(Cc5ccc(N6CCOCC6)cc5)nn4)cccc3C2=O)C(=O)N1 (stereo not shown) [Compound 8, 3-(4-((1-(4-morpholinbenzyl)-1H-1,2,3-triazol-4-)methoxy)-1-oxoisoindolin-2-) piperidine-2,6-dione] |
| < 0.15 | CN(C)c1cccc(Cn2cc(COc3cccc4c3CN(C3CCC(=O)NC3=O)C4=O)nn2)c1 (stereo not shown) [Compound 9] |
| < 0.15 | COC(=O)c1cccc(Cn2cc(COc3cccc4c3CN(C3CCC(=O)NC3=O)C4=O)nn2)c1 (stereo not shown) [Compound 10, Methyl 3-((4-(((2-(2,6-dioxopiperidin-3-)-1-oxoisoindolin-4-)oxo)methyl)-1H-1,2,3-triazol-1-)methyl) benzoate] |
| < 0.15 | O=C1CCC(N2Cc3c(OCc4cn(Cc5cccc(OC(F)(F)F)c5)nn4)cccc3C2=O)C(=O)N1 (stereo not shown) [Compound 11] |
| < 0.15 | O=C1CCC(N2Cc3c(OCc4cn(Cc5ccc(CN6CCOCC6)cc5)nn4)cccc3C2=O)C(=O)N1 (stereo not shown) [Compound 12, 3-(4-((1-(4-(morpholinomethyl)benzyl)-1H-1,2,3-triazol-4-)methoxy)-1-oxoisoindolin-2-) piperidine-2,6-dione] |
| 0.15 to 20 | O=C1CCC(N2Cc3c(OCc4cn(Cc5ccc6[nH]cnc6c5)nn4)cccc3C2=O)C(=O)N1 (stereo not shown) [Compound 13] |
| < 0.15 | O=C1CCC(N2Cc3c(OCc4cn(Cc5cccc(-n6ccnc6)c5)nn4)cccc3C2=O)C(=O)N1 (stereo not shown) [Compound 14, 3-(4-((1-(3-(1H-imidazol-1-)benzyl)-1H-1,2,3-triazol-4-)methoxy)-1-oxoisoindolin-2-) piperidine-2,6-dione] |
| < 0.15 | O=C1CCC(N2Cc3c(OCc4cn(-c5ccccc5)nn4)cccc3C2=O)C(=O)N1 (stereo not shown) [Compound 15, 3-(1-oxo-4-((1-phenyl-1H-1,2,3-triazol-4-)methoxy)isoindolin-2-) piperidine-2,6-dione] |
| < 0.15 | O=C1CCC(N2Cc3c(OCc4cn(-c5cccc(O)c5)nn4)cccc3C2=O)C(=O)N1 (stereo not shown) [Compound 16, 3-(4-((1-(3-hydroxyphenyl)-1H-1,2,3-triazol-4-)methoxy)-1-oxoisoindolin-2-) piperidine-2,6-dione] |
| < 0.15 | O=C1CCC(N2Cc3c(OCc4cn(-c5ccc(O)cc5)nn4)cccc3C2=O)C(=O)N1 (stereo not shown) [Compound 21, 3-(4-((1-(4-hydroxyphenyl)-1H-1,2,3-triazol-4-)methoxy)-1-oxoisoindolin-2-) piperidine-2,6-dione] |
| < 0.15 | O=C1CCC(N2Cc3c(OCc4cn(-c5cccc(N6CCOCC6)c5)nn4)cccc3C2=O)C(=O)N1 (stereo not shown) [Compound 22, 3-(4-((1-(3-morpholinophenyl)-1H-1,2,3-triazol-4-)methoxy)-1-oxoisoindolin-2-) piperidine-2,6-dione] |
| < 0.15 | CN(C)CCn1ccc2cc(-n3cc(COc4cccc5c4CN(C4CCC(=O)NC4=O)C5=O)nn3)ccc21 (stereo not shown) [Compound 27, 3-(4-((1-(1-(2-(dimethylamino)ethyl)-1H-indol-5-)-1H-1,2,3-triazol-4-)methoxy)-1-oxoisoindolin-2-)piperidine-2,6-dione] |
| < 0.15 | O=C1CCC(N2Cc3c(OCc4cn(-c5ccc(OC6COC6)cc5)nn4)cccc3C2=O)C(=O)N1 (stereo not shown) [Compound 31, 3-(4-((1-(4-(epoxypropanoxy-3-oxy)phenyl)-1H-1,2,3-triazol-4-)methoxy)-1-oxoisoindolin-2-)piperidine-2,6-dione] |
| < 0.15 | O=C1CCC(N2Cc3c(OCc4cn(-c5ccc(OC6CC6)cc5)nn4)cccc3C2=O)C(=O)N1 (stereo not shown) [Compound 32] |
| < 0.15 | O=C1CCC(N2Cc3c(OCc4cn(-c5ccc(CCO)cc5)nn4)cccc3C2=O)C(=O)N1 (stereo not shown) [Compound 33] |

| IC50 [µM] | SMILES |
| --- | --- |
| 0.15 to 20 | C[C@]1(N2Cc3c(OCc4cn(-c5ccc(OC(F)(F)F)cc5)nn4)cccc3C2=O)CCC(=O)NC1=O [Compound 34] |
| 0.15 to 20 | C[C@]1(N2C(=O)c3cccc(OCc4cn(-c5ccc(OC(F)(F)F)cc5)nn4)c3C2=O)CCC(=O)NC1=O [Compound 35] |
| 0.15 to 20 | COCCn1ccc2cc(-n3cc(COc4cccc5c4CN([C@@]4(C)CCC(=O)NC4=O)C5=O)nn3)ccc21 [Compound 36, (S)-3-(4-((1-(1-(2-methoxyethyl)-1H-indol-5-)-1H-1,2,3-triazol-4-)methoxy)-1-oxoisoindolin-2-)-3-methylpiperidine-2,6-dione] |
| 0.15 to 20 | COCCn1ccc2cc(-n3cc(COc4cccc5c4C(=O)N([C@@]4(C)CCC(=O)NC4=O)C5=O)nn3)ccc21 [Compound 37, (S)-4-((1-(1-(2-methoxyethyl)-1H-indole-5-)-1H-1,2,3-triazol-4-)methoxy)-2-(3-methyl-2,6-dioxopiperidine-3-) isoindolin-1,3-dione] |
| 0.15 to 20 | O=C1CCC(N2C(=O)c3cccc(OCc4cn(-c5ccc(OC(F)(F)F)cc5)nn4)c3C2=O)C(=O)N1 (stereo not shown) [Compound 38, 2-(2,6-dioxopiperidine-3-)-4-((1-(4-trifluoromethoxyphenyl)-1H-1,2,3-triazol-4-)methoxy) isoindolin-1,3-dione] |
| < 0.15 | O=C1CCC(N2Cc3c(OCc4cnc(-c5nc6ccccc6s5)s4)cccc3C2=O)C(=O)N1 (stereo not shown) [Compound 46, 3-(4-(2-(benzo[d]thiazol-2-)thiazol-5-)methoxy)-1-oxoisoindolin-2-) piperidine-2,6-dione] |
| < 0.15 | O=C1CCC(N2Cc3c(OCc4cnc(-c5ncc(C(F)(F)F)s5)s4)cccc3C2=O)C(=O)N1 (stereo not shown) [Compound 47] |
| 0.15 to 20 | O=C1CCC(N2Cc3c(OCc4cn(CC5CCOCC5)nn4)cccc3C2=O)C(=O)N1 (stereo not shown) [Compound 48, 3-(1-oxo-4-((1-((tetrahydro-2H-pyran-4-)methyl)-1H-1,2,3-triazol-4-)methoxy)isoindolin-2-) piperidine-2,6-dione] |
| < 0.15 | O=C1CCC(N2Cc3c(OCc4cn(CCc5ccccc5)nn4)cccc3C2=O)C(=O)N1 (stereo not shown) [Compound 49] |
| < 0.15 | C[C@H](c1ccccc1)n1cc(COc2cccc3c2CN(C2CCC(=O)NC2=O)C3=O)nn1 (stereo partly shown) [Compound 50] |
| < 0.15 | C[C@@H](c1ccccc1)n1cc(COc2cccc3c2CN(C2CCC(=O)NC2=O)C3=O)nn1 (stereo partly shown) [Compound 51] |
| < 0.15 | COC[C@@H](Cc1ccccc1)n1cc(COc2cccc3c2CN(C2CCC(=O)NC2=O)C3=O)nn1 (stereo partly shown) [Compound 52] |
| < 0.15 | O=C1CCC(N2Cc3c(OCc4cn([C@@H](CO)Cc5ccccc5)nn4)cccc3C2=O)C(=O)N1 (stereo partly shown) [Compound 53] |
| 0.15 to 20 | O=C1CCC(N2Cc3c(OCc4cn([C@H](CO)Cc5ccccc5)nn4)cccc3C2=O)C(=O)N1 (stereo partly shown) [Compound 54] |
| < 0.15 | CN(C)C[C@H](Cc1ccccc1)n1cc(COc2cccc3c2CN(C2CCC(=O)NC2=O)C3=O)nn1 (stereo partly shown) [Compound 56] |
| < 0.15 | CN(C)C[C@@H](Cc1ccccc1)n1cc(COc2cccc3c2CN(C2CCC(=O)NC2=O)C3=O)nn1 (stereo partly shown) [Compound 57] |
| < 0.15 | C[C@H](Cc1ccccc1)n1cc(COc2cccc3c2CN(C2CCC(=O)NC2=O)C3=O)nn1 (stereo partly drawn) [Compound 58, 3-(1-oxo-4-((1-((R)-1-phenylpropyl-2-)-1H-1,2,3-triazol-4-)methoxy)isoindolin-2-) piperidine-2,6-dione] |
| < 0.15 | C[C@@H](Cc1ccccc1)n1cc(COc2cccc3c2CN(C2CCC(=O)NC2=O)C3=O)nn1 (stereo partly drawn) [Compound 59, 3-(1-oxo-4-((1-((S)-1-phenylpropyl-2-)-1H-1,2,3-triazol-4-)methoxy)isoindolin-2-) piperidine-2,6-dione] |
| > 20 | O=C1CCC(N2Cc3c(OCCc4cn(-c5ccccc5)nn4)cccc3C2=O)C(=O)N1 (stereo not shown) [Compound 60, 3-(1-oxo-4-(2-(1-phenyl-1H-1,2,3-triazol-4-)ethoxy)isoindolin-2-) piperidine-2,6-dione] |
| < 0.15 | O=C1CCC(N2Cc3c(OCCc4cn(-c5ccc(OC(F)(F)F)cc5)nn4)cccc3C2=O)C(=O)N1 (stereo not shown) [Compound 61, 3-(1-oxo-4-(2-(1-(4-(trifluoromethoxy)phenyl)-1H-1,2,3-triazol-4-)ethoxy)isoindoline-2-) piperidine-2,6-dione] |
| < 0.15 | O=C1CCC(N2Cc3c(CCc4cnc(-c5ccc(OC(F)(F)F)cc5)o4)cccc3C2=O)C(=O)N1 (stereo not shown) [Compound 62, 3-(1-oxo-4-(2-(2-(4-(trifluoromethoxy)phenyl)oxazol-5-yl)ethyl)isoindolin-2-yl) piperidine-2,6-dione] |
